Measurements reported in patent US20250205275A1, “POLYMERIC IRON BINDING COMPOSITIONS AND METHODS OF USE FOR TREATING DISEASES ASSOCIATED WITH EXCESS DAMAGING REACTIVE IRON” (Fe Pharmaceuticals (Canada) Inc., priority 2022, published 2025).
Marks after values point to notes of the source that are not given here.

What was measured:
Gram positive bacteria = settings: cited from earlier work
[1] = cited from earlier work
fungi = settings: cited from earlier work
Gram negative bacteria = settings: cited from earlier work
microbial growth = settings: cited from earlier work
[2] = tested on: cells challenged with high-glucose; settings: cited from earlier work
[3] = doxorubicin-induced mouse model; cited from earlier work
[4] = Iron(III) binding affinity by NaOH titration with UV-vis spectra (HypSpec2014); settings: 25° C.
Method: The titrations were carried out under a wet nitrogen atmosphere to avoid concentration changes due to evaporation. Aliquots of each complex solution were taken periodically during the titration and the UV-vis spectra of the aliquots were collected as a batch once the titration was completed. The pH range studied spanned the equilibrium between bis and tris coordination for the ligands as these are the only two species expected at physiological pH. For Fe3-DIBI the spectra were collected 24 h after collecting the batch of aliquots. The spectra were processed using HypSpec2014 to determine the iron(III) binding affinity of […] and deferiprone (DFP) as reference as summarized in Table 7.

[5] = Resistance of chelator-bound iron(III) to chemical reduction by dithionite; type: physicochemical; settings: 0.1 M MOPS, pH 7.4
Excerpt: Chemical reduction of iron from Fe(III) to Fe(II) is part of the chemical reductive cycling of iron that drives ROS production in and around cells and also facilities removal of iron from intracellular stores for use elsewhere in the body. Generally iron in extracellular compartments of the body is in the Fe(III) form this helping to limit iron related toxic reactions as free Fe(II) would quickly oxidize to Fe(III) and this could drive, for example, ROS production. Thus, the relative ability of an iron chelator to hold Fe(III) and resist its reduction to Fe(II) would have benefits. Correspondingly, the relative chemical reducibility of Fe(III) to Fe(II) as bound by deferiprone, MAHMP and DIBI was tested. The different iron loaded chelators were first prepared so that iron only sufficient to ensure initial presence of fully coordinated iron(III) was used, i.e. a ratio of three chelator molecules of either deferiprone or MAHMP to each iron(III) atom present. DIBI with its measured MAHMP content was also similarly loaded with iron added just sufficient to satisfy its MAHMP iron binding sites on a similar basis. The iron-chelates were then reacted with dithionite (DT, [S2O4]^2−) a chemical reductant for iron and the relative changes in absorbance intensity at 460 nm was used to monitor for iron reduction with results as shown in FIG. 2.

ferroportin = target: T1, ferroportin (Homo sapiens, UniProt Q9NP59); settings: clinical testing, advanced to phase II; cited from earlier work
T1 sequence (Q9NP59 1-571): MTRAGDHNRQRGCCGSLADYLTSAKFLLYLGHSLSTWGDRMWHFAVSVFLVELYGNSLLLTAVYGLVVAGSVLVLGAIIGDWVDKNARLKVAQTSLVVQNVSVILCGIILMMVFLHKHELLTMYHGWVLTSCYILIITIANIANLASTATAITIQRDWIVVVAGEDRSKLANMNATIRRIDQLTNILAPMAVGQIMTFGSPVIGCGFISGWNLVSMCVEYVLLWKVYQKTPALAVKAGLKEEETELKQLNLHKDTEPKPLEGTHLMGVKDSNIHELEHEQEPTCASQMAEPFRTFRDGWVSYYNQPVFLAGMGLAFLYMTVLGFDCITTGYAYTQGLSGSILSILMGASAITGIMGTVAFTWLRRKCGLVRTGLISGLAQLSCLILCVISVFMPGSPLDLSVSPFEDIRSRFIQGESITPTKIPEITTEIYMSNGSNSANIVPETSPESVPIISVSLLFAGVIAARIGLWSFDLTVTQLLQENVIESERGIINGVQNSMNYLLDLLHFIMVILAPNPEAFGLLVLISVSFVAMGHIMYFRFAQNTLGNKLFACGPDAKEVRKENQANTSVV

[6] = Approx, based on close analogue 36 and FBS0701; cited from earlier work
[7] = clinical trials; cited from earlier work
[8] = in vivo; cited from earlier work
ferroptosis = settings: cited from earlier work

SMILES	MIC Gram positive bacteria (Gram positive bacteria)	Hydrophobicity/ hydrophilicity log P [1]	MIC fungi (fungi)	MIC Gram negative bacteria (Gram negative bacteria)	Antimicrobial activity (microbial growth)	cell viability [2]	other results
O=C(O)c1ccc(-n2nc(-c3ccccc3O)nc2-c2ccccc2O)cc1 [Deferasirox]	21^l μM	4.3 ^b	67^p μM	133^m μM	Low	–	–
CCOC(=O)c1ccc(NC2CCCCC2)c(N)c1 [ferrostatin-1]	–	–	–	–	–	rescued cell viability	cardiac function [3]: improved cardiac function; mortality [3]: reduced mortality
O=c1c(O)c(-c2ccc(O)c(O)c2)oc2cc(O)cc(O)c12 [quercetin]	–	–	–	–	–	rescued cell viability	–
Cc1c(O)c(=O)ccn1C [Deferiprone]	575^e μM	−0.8 ^b	1151^n μM	287^k μM	Very Low	–	Log β1 iron binding formation constant [4]: 15.01(1); Log β2 iron binding formation constant [4]: 27.5(7); Log β3 iron binding formation constant [4]: 36.7(1); reduction of bound iron(III) by dithionite (intensity of 460 nm band) [5]: readily reduced
O=C(NCc1ncccc1F)c1coc(CCNCCc2nc3ccccc3[nH]2)n1 [VIT-2763]	–	–	–	–	–	–	lowering serum iron levels (ferroportin): good potential for lowering serum iron levels; toxicity (ferroportin): low toxicity
COCCOCCOc1ccc(C2=N[C@@](C)(C(=O)O)CS2)c(O)c1 [SP-420]	–	−0.89	–	–	–	–	Fe binding constant log K [6]: 33.1-33.4; renal toxicity [7]: undesirable renal toxicity
C=C(C)C(=O)NCCn1ccc(=O)c(O)c1C [MAHMP]	–	–	–	–	–	–	Log β1 iron binding formation constant [4]: 15.01(1); Log β2 iron binding formation constant [4]: 27.9(1); Log β3 iron binding formation constant [4]: 38.22(6); reduction of bound iron(III) by dithionite (intensity of 460 nm band) [5]: The same reaction was observed
CC(=O)N(O)CCCCCNC(=O)CCC(=O)N(O)CCCCCNC(=O)CCC(=O)N(O)CCCCCN [Deferoxamine]	>913^k μM	−3 ^b	>228^n μM	>913^k μM	Poor,	rescued cell viability	infections in test animals [8]: fatal infections; effect on ferroptosis (ferroptosis): suppression
O=C([O-])CN(CC(=O)[O-])CC(=O)[O-].[Fe+3] [ferric-nitriloacetate (NTA), ferric-nitriloacetate]	–	–	–	–	–	–	effect on ferroptosis (ferroptosis): promote ferroptosis and renal carcinoma
